Reference: patent publication US12655413B2, “Fragmented GRS polypeptide and variant thereof, and use thereof” (CUREBIO THERAPEUTICS, priority 2018, dated 2026)
Residues, ends and D or L forms follow the SMILES beside them.

Tests used:
[1] = system: SN12C (CDH6 positive renal cancer cell); test: Comparison of in vitro cancer cell apoptotic activity among the polypeptides (FIG. 2); assay type: cell-based; settings: 1 μg or 2 μg of polypeptide
Description: The polypeptide fragments were assayed for cancer cell apoptotic activity. Concrete experiment procedures were as follows: H460, HCT116, MCF7, HeLa, SN12C or RENCA cells were each seeded at a density 5,000 cells/mL into 96-well plates (Corning, New York, USA) and incubated for 24 hours with 100 nM of each of the polypeptide fragments and the full-length GRS protein. Then, each sample was treated for 2 hours with 10 μl of CCK8 reagent (Dojindo Molecular Technologies Inc. Kumamoto, Japan) before absorbance was read at 570 nm on a microplate reader (TECAN, Mannedorf, Swiss).
Comparison was made of cancer cell apoptotic activity among the polypeptide constructs of Examples 1-1 and 1-2. Each polypeptide was used in an amount of 1 μg or 2 μg, and the assay was performed in the same manner as in Example 1-1.

[2] = system: SN12C (CDH6 positive) cells; test: In vivo anticancer activity, intra-tumor injection, SN12C xenograft; set-up: species or system BALB/c nude mice; settings: 20 μg into tumors on day 5 and 7; monitored 21 days; FIGS. 6b to 6d
Description: FIG. 6a is an experimental scheme for evaluating the ability of GRS, GRS-DP, and representative fragments derived therefrom (GRS-DP-B, or GRS-DP-A cyclic) to induce tumor regression in vivo by intra-tumor injection. Briefly, SN12C (CDH6 positive) cells were subcutaneously injected into BALB/c nude mice and then grown for 5 days to an average tumor size of 100 mm^3. On day 5 and 7, PBS or test materials were each injected at a dose of 20 μg into tumors (n=5 animals/group). Tumor volumes were calculated according to “maximum diameter×minimum diameter^2×0.52”.
Experimental procedures of an assay for in vivo anticancer activity are schematically represented in FIG. 6a. Briefly, 1×10^7 SN12C (CDH6 positive) cells were subcutaneously injected to the right flank of female BALB/c 8 weeks old (Dooyeol Biotech Co. Ltd, Seocho-gu, Seoul) and then grown for 5 days to an average tumor size of 100 mm^3. On day 5 and 7, PBS (control) or test materials (including a control) were each injected at a dose of 20 μg into tumors (n=5 animals/group). After monitoring the tumors for 21 days, the mice were sacrificed on day 21 and the tumors were excised. Tumor volumes were calculated according to “maximum diameter×minimum diameter^2×0.52”.

[3] = system: SN12C (CDH6 positive) cells; test: In vivo anticancer activity, intravenous injection, SN12C xenograft; set-up: species or system BALB/c nude mice; settings: 5 MPK intravenously on day 5 and 7; monitored 21 days; FIGS. 7a to 7c
Excerpt: FIG. 7a is an image of tumors excised from experimental animals in each test group sacrificed on day 21 after xenotransplantation of tumor cells, showing results of evaluating the ability of GRS, GRS-DP, and representative fragments derived therefrom (GRS-DP-B, or GRS-DP-A cyclic) to induce tumor regression in vivo by intravenous injection. Briefly, SN12C (CDH6 positive) cells were subcutaneously injected into BALB/c nude mice and then grown for 5 days to an average tumor size of 100 mm^3. On day 5 and 7, PBS or test materials were each intravenously injected at a dose of 5 MPK (n=5 animals/group). Tumor volumes were calculated according to “maximum diameter×minimum diameter^2×0.52”.
Experimental procedures of an assay for in vivo anticancer activity are schematically represented in FIG. 6a. Briefly, 1×10^7 SN12C (CDH6 positive) cells were subcutaneously injected to the right flank of female BALB/c 8 weeks old (Dooyeol Biotech Co. Ltd, Seocho-gu, Seoul) and then grown for 5 days to an average tumor size of 100 mm^3. On day 5 and 7, PBS (control) or test materials (including a control) were each intravenously injected at a dose of 5 MPK (n=5 animals/group). After monitoring the tumors for 21 days, the mice were sacrificed on day 21 and the tumors were excised. Tumor volumes were calculated according to “maximum diameter×minimum diameter^2×0.52”.

[4] = system: B16F10 cells; test: In vivo tumor targeting of Alexa fluor 488-labeled polypeptides, intravenous injection; set-up: species or system C57BL/6 mice; settings: 1 mg/kg intravenously, tumors excised after 24 hours; compared to full-length GRS protein and GRS-DP; FIGS. 8a, 8b
Excerpt: FIG. 8a is an image of tumors excised from test groups, showing comparison of abilities of GRS, GRS-DP, and representative fragments derived therefrom (GRS-DP-B or GRS-DP-A cyclic) to specifically target cancer cells in terms of fluorescence labeling intensity. In the experiment, B16F10 cells were subcutaneously injected into C57BL/6 mice and then grown for 14 days. On day 14, PBS or fluorescence-labeled test materials were each intravenously injected at a dose of 1 MPK, and tumors were excised 24 hours after injection.
Thus, the ability of GRS-DP-B to target tumors in practice was evaluated when it was administered in a systemic manner. For this, GRS-DP-B, GRS-DP-A cyclic, GRS-DP, and full-length GRS protein were assayed for tumor targeting ability in vivo. Briefly, B16F10 cells (5×10^6 cells) were subcutaneously injected into the right flank of each of C57BL/6 mice 8 weeks old. On day 14, full-length GRS and the polypeptides of the present invention, each labeled with Alexa fluor 488, were intravenously injected at a dose of 1 mg/kg mouse weight, and the tumors were excised after 24 hours. Fluorescent signals of tumors were measured using IVIS Lumina Series III (PerkinElmer, Massachusetts, USA) to analyze regions of interest (ROI)

[5] = system: CDH6+/pERK+ cells (H460, HeLa, SN12C) or negative cells (RENCA, MCF7); test: CDH6-dependency: cell viability of CDH6/pERK positive or negative cells; assay type: cell-based; settings: GRS-DP 100 nM (FIG. 5a legend: 200 nM); CDH6 positive vs negative cells
[6] = system: pERK in SN12C (CDH6 positive) cells or RENCA (CDH6 negative) cells; test: Dephosphorylation of pERK by western blotting; assay type: cell-based; settings: 100 nM or 200 nM, 1 hour; SN12C vs RENCA; FIGS. 5b, 5c
Description: To examine whether the polypeptides of the present invention dephosphorylates pERK by binding to CDH6 or not, SN12C (CDH6 positive) cells or RENCA (CDH6 negative) cells were treated with the polypeptides of the present invention (typically, 100 nM or 200 nM of GRS-DP) and dephosphorylation of pERK was analyzed. In this regard, full-length GRS 100 nM was used as a positive control. In brief, the cells were […] for 1 hour with full-length GRS or GRS-DP, washed twice with chilled PBS, and lysed in a lysis buffer (150 mM NaCl, 2 mM EDTA, 1% Triton X-100, 1% sodium deoxycholate, 10 mM NaF, 1 mM orthovandadate, 10% glycerol, protease cocktail). Thirty micrograms of each protein were run on SDS/PAGE, followed by western blotting with an ERK antibody purchased from Cell Signaling Technology (Danvers, MA, USA) and an anti-cadherin-6 (K-cadherin) antibody purchased from Abcam (Cambridge, UK).

[7] = biological target: T1, cadherin6 (CDH6)-fc fusion protein (Homo sapiens, UniProt P55285); test: Affinity for CDH6 by surface plasmon resonance (SPR); assay type: binding; settings: CDH6 immobilized on carboxymethyl dextran chip
T1 construct: Fc
T1 sequence (P55285 with tags, fused parts or gaps limits assumed): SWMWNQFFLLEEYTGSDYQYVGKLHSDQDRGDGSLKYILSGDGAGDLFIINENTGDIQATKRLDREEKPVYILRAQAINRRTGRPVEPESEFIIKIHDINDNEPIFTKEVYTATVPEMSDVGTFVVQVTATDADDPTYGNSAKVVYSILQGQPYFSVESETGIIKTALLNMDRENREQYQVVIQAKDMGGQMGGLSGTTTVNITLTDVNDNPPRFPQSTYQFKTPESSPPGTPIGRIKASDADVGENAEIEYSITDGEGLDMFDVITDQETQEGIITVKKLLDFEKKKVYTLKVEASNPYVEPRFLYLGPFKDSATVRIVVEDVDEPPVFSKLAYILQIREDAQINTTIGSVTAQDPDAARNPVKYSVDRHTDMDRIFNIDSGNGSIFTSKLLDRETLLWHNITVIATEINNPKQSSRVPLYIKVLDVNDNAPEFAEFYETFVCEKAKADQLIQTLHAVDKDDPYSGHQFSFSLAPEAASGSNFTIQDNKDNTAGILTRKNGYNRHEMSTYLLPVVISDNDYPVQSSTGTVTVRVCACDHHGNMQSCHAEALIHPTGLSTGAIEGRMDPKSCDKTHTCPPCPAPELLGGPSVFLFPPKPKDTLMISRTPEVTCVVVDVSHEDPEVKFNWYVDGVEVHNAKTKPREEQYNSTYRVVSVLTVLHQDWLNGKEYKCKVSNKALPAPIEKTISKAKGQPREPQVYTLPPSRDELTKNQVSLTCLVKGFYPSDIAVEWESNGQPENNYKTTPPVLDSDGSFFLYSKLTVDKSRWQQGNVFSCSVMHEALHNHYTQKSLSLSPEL
Description: Comparison was made of the affinity of the peptides of the present invention for CDH6. The binding of GRS and GRS-derived peptides to cadherin6 (CDH6)-fc fusion protein was analyzed by surface plasmon resonance (SPR) using SR7500DC, Reichert Analytical Instrument (Depew NY). CDH6 was immobilized on a [CMDH chip]carboxymethyl dextran sensor chip via a free carboxyl group on the surface thereof, followed by injecting 0.1M 1-ethyl-3-(3-dimethylaminopropyl) carbodiimide hydrochloride and 0.05M N-hydroxysuccinimide at a flow speed of 5 μL/min to give an activated succinimide ester-modified surface. Various concentrations of GRS and GRS-derived peptides were injected at a flow speed of 30 μL/min into phosphate-based saline, after which a mobile-phase buffer was injected at the same flow speed to determine a dissociation rate. Data was analyzed using Software Scrubber 2.0 (Biological Software, Australia).

Kd [7] [nM] | Compound | cancer cell apoptotic effect [1] | sizes (volumes) and weights of tumors [2] | sizes (volumes) and weights of tumors [3] | tumor-specific target ability (fluorescence ROI of excised tumors) [4] | cell viability [5] | dephosphorylation of pERK [6]
 | CSCC[C@H](N)C(=O)N[C@@H](Cc1ccc(O)cc1)C(=O)N[C@H](C(=O)N[C@H](C(=O)N[C@@H](Cc1ccccc1)C(=O)N[C@@H](CCC(=O)O)C(=O)N[C@@H](Cc1c[nH]cn1)C(=O)N[C@H](C(=O)N[C@@H](Cc1ccccc1)C(=O)N[C@@H](Cc1c[nH]cn1)C(=O)N[C@H](C(=O)N[C@@H](CCCNC(=N)N)C(=O)N[C@@H](CCC(=O)O)C(=O)NCC(=O)N[C@@H](CC(=O)O)C(=O)N[C@@H](CCC(=O)O)C(=O)N[C@@H](CCC(N)=O)C(=O)N[C@@H](CCCNC(=N)N)C(=O)N[C@H](C(=O)N[C@@H](Cc1ccccc1)C(=O)N[C@@H](Cc1ccccc1)C(=O)N[C@@H](CO)C(=O)N[C@@H](Cc1ccccc1)C(=O)N1CCC[C@H]1C(=O)N[C@@H](C)C(=O)O)[C@@H](C)O)C(C)C)[C@@H](C)O)C(C)C)[C@@H](C)O [GRS-DP-A linear] (H-MYTVFEHTFHVREGDEQRTFFSFPA-OH; N-terminus and C-terminus assumed) | remarkably |  |  |  |  | 
 | GRS-DP-B: truncated GRS fragment, positions 531-538 on SEQ ID NO: 1, 8 aa (SEQ ID NO: 2) (MYTVFEHT; GRS-DP-B(GRS 531-538)) | remarkably | most remarkably reduced | most remarkably reduced | remarkably high tumor-specific target ability |  | 
 | GRS-DP-C: truncated GRS fragment, positions 538-552 on SEQ ID NO: 1, 15 aa (SEQ ID NO: 12) (TFHVREGDEQRTFFS; GRS-DP-C (GRS 538-552)) | not detected |  |  |  |  | 
83.9 | MYTVFEHTFHVREGDEQRTFFSFPAVVAPFKCSVLPLSQNQEFMPFVKELSEALTRHGVSHKVDDSSGSI [GRS-DP] | remarkably |  |  |  | reduced the cell viability of CDH6-positive cells only | inducing the CDH6-dependent dephosphorylation of pERK
